From the NIST ThermoML archive (doi:10.1021/je800786k)

Conditions: Liquid, Vibrating tube method

CCCCCCC(C)N (stereo not given) [1-methylheptylamine]
Conditions	mass density [kg/m3]
293.15 K, 100 kPa	772
293.15 K, 10000 kPa	778.7
293.15 K, 20000 kPa	784.8
293.15 K, 30000 kPa	790.6
293.15 K, 40000 kPa	796.1
293.15 K, 50000 kPa	801.2
293.15 K, 60000 kPa	806
293.15 K, 70000 kPa	810.6
293.15 K, 80000 kPa	815
293.15 K, 90000 kPa	819.1
293.15 K, 100000 kPa	823.2
293.15 K, 110000 kPa	826.9
293.15 K, 120000 kPa	830.6
293.15 K, 130000 kPa	834.2
293.15 K, 140000 kPa	837.6
303.15 K, 100 kPa	764
303.15 K, 10000 kPa	771.3
303.15 K, 20000 kPa	777.8
303.15 K, 30000 kPa	783.8
303.15 K, 40000 kPa	789.2
303.15 K, 50000 kPa	794.5
303.15 K, 60000 kPa	799.5
303.15 K, 70000 kPa	804.2
303.15 K, 80000 kPa	808.7
303.15 K, 90000 kPa	813
303.15 K, 100000 kPa	817.1
303.15 K, 110000 kPa	821
303.15 K, 120000 kPa	824.8
303.15 K, 130000 kPa	828.5
303.15 K, 140000 kPa	832
313.15 K, 100 kPa	755.8
313.15 K, 10000 kPa	763.5
313.15 K, 20000 kPa	770.4
313.15 K, 30000 kPa	776.7
313.15 K, 40000 kPa	782.5
313.15 K, 50000 kPa	788.1
313.15 K, 60000 kPa	793.2
313.15 K, 70000 kPa	798.1
313.15 K, 80000 kPa	802.7
313.15 K, 90000 kPa	807.1
313.15 K, 100000 kPa	811.4
313.15 K, 110000 kPa	815.5
313.15 K, 120000 kPa	819.4
313.15 K, 130000 kPa	823.1
313.15 K, 140000 kPa	826.7
323.15 K, 100 kPa	748.1
323.15 K, 10000 kPa	756
323.15 K, 20000 kPa	763.2
323.15 K, 30000 kPa	769.9
323.15 K, 40000 kPa	776
323.15 K, 50000 kPa	781.6
323.15 K, 60000 kPa	787.1
323.15 K, 70000 kPa	792.2
323.15 K, 80000 kPa	797
323.15 K, 90000 kPa	801.5
323.15 K, 100000 kPa	805.9
323.15 K, 110000 kPa	810.1
323.15 K, 120000 kPa	814.1
323.15 K, 130000 kPa	818
323.15 K, 140000 kPa	821.6
333.15 K, 100 kPa	739.6
333.15 K, 10000 kPa	748.1
333.15 K, 20000 kPa	755.5
333.15 K, 30000 kPa	762.6
333.15 K, 40000 kPa	769
333.15 K, 50000 kPa	775
333.15 K, 60000 kPa	780.6
333.15 K, 70000 kPa	785.8
333.15 K, 80000 kPa	790.9
333.15 K, 90000 kPa	795.5
333.15 K, 100000 kPa	800
333.15 K, 110000 kPa	804.4
333.15 K, 120000 kPa	808.5
333.15 K, 130000 kPa	812.5
333.15 K, 140000 kPa	816.3
343.15 K, 100 kPa	731.5
343.15 K, 10000 kPa	740.5
343.15 K, 20000 kPa	748.6
343.15 K, 30000 kPa	756
343.15 K, 40000 kPa	762.7
343.15 K, 50000 kPa	768.9
343.15 K, 60000 kPa	774.7
343.15 K, 70000 kPa	780.2
343.15 K, 80000 kPa	785.3
343.15 K, 90000 kPa	790.2
343.15 K, 100000 kPa	794.9
343.15 K, 110000 kPa	799.2
343.15 K, 120000 kPa	803.4
343.15 K, 130000 kPa	807.5
343.15 K, 140000 kPa	811.4
353.15 K, 100 kPa	723.2
353.15 K, 10000 kPa	733
353.15 K, 20000 kPa	741.6
353.15 K, 30000 kPa	749.3
353.15 K, 40000 kPa	756.2
353.15 K, 50000 kPa	762.7
353.15 K, 60000 kPa	768.7
353.15 K, 70000 kPa	774.4
353.15 K, 80000 kPa	779.7
353.15 K, 90000 kPa	784.7
353.15 K, 100000 kPa	789.5
353.15 K, 110000 kPa	794.1
353.15 K, 120000 kPa	798.4
353.15 K, 130000 kPa	802.3
353.15 K, 140000 kPa	806.3
363.15 K, 100 kPa	714.7
363.15 K, 10000 kPa	724.9
363.15 K, 20000 kPa	734
363.15 K, 30000 kPa	742
363.15 K, 40000 kPa	749.3
363.15 K, 50000 kPa	756.1
363.15 K, 60000 kPa	762.4
363.15 K, 70000 kPa	768.3
363.15 K, 80000 kPa	773.8
363.15 K, 90000 kPa	779
363.15 K, 100000 kPa	783.9
363.15 K, 110000 kPa	788.5
363.15 K, 120000 kPa	793
363.15 K, 130000 kPa	797.3
363.15 K, 140000 kPa	801.4
373.15 K, 100 kPa	706
373.15 K, 10000 kPa	717.2
373.15 K, 20000 kPa	726.6
373.15 K, 30000 kPa	735.2
373.15 K, 40000 kPa	742.9
373.15 K, 50000 kPa	749.9
373.15 K, 60000 kPa	756.8
373.15 K, 70000 kPa	762.8
373.15 K, 80000 kPa	768.5
373.15 K, 90000 kPa	773.8
373.15 K, 100000 kPa	778.9
373.15 K, 110000 kPa	783.7
373.15 K, 120000 kPa	788.3
373.15 K, 130000 kPa	792.8
373.15 K, 140000 kPa	796.8
383.15 K, 100 kPa	697.6
383.15 K, 10000 kPa	709.4
383.15 K, 20000 kPa	719.5
383.15 K, 30000 kPa	728.5
383.15 K, 40000 kPa	736.4
383.15 K, 50000 kPa	743.8
383.15 K, 60000 kPa	750.6
383.15 K, 70000 kPa	756.8
383.15 K, 80000 kPa	762.7
383.15 K, 90000 kPa	768.1
383.15 K, 100000 kPa	773.3
383.15 K, 110000 kPa	778.3
383.15 K, 120000 kPa	783
383.15 K, 130000 kPa	787.5
383.15 K, 140000 kPa	791.8
393.15 K, 100 kPa	689
393.15 K, 10000 kPa	701.6
393.15 K, 20000 kPa	712.3
393.15 K, 30000 kPa	721.7
393.15 K, 40000 kPa	730
393.15 K, 50000 kPa	737.9
393.15 K, 60000 kPa	744.9
393.15 K, 70000 kPa	751.4
393.15 K, 80000 kPa	757.5
393.15 K, 90000 kPa	763.2
393.15 K, 100000 kPa	768.6
393.15 K, 110000 kPa	773.6
393.15 K, 120000 kPa	778.4
393.15 K, 130000 kPa	782.8
393.15 K, 140000 kPa	787.2
403.15 K, 100 kPa	680.1
403.15 K, 10000 kPa	693.5
403.15 K, 20000 kPa	705
403.15 K, 30000 kPa	714.8
403.15 K, 40000 kPa	723.5
403.15 K, 50000 kPa	731.5
403.15 K, 60000 kPa	738.7
403.15 K, 70000 kPa	745.4
403.15 K, 80000 kPa	751.6
403.15 K, 90000 kPa	757.5
403.15 K, 100000 kPa	763.1
403.15 K, 110000 kPa	768.3
403.15 K, 120000 kPa	773.2
403.15 K, 130000 kPa	777.9
403.15 K, 140000 kPa	782.4
